# Measurements reported in US20240245743A1, “USE OF CINNAMOMUM ZEYLANICUM ESSENTIAL OIL (EO) AS HUMAN MELANOMA CELLS DEATH INDUCER AND AS POSSIBLE ADJUVANT IN PHARMACOLOGICAL THERAPIES” (CONSIGLIO NAZIONALE DELLE RICERCHE, priority 2021, published 2024).
# What was measured:
# [1] = features known in the art; cited from earlier work
# [2] = test system: M14 cells; experiment: Intracellular ROS analysis by FACS (H2DCF-DA); format: cell-based, human; conditions: EO 10 μg/ml for 24 hours; H2O2 5 mM
# Experimental: The generation of ROS species (reactive oxygen species) was analysed by FACS, using the probe sensitive to the oxidant 2 ‘, 7’-dichlorodihydrofluorescein (H2DCF-DA). The C. zeylanicum EO was administered at a dose of 10 μg/ml for 24 hours. […] H2O2 at a concentration of 5 mM was used as a control for the generation of ROS.
# [3] = rats; cited from earlier work
# [4] = test system: M14 cells; experiment: Colony formation assay; format: cell-based, human
# Experimental: Ten days after seeding, a solution of 2% methylene blue in 95% ethanol was added to the obtained monolayer and incubated for at least 30 minutes. The plates were then washed with ddH2O and the colonies (at least 50 cells) were counted. The results were expressed as a percentage of colonies formed with respect to the number of cells seeded. Cell survival rate was calculated as % compared to control cells.
# [5] = test system: melanoma; conditions: phase III study; cited from earlier work
# [6] = test system: advanced melanoma, untreated brain metastases, and other solid tumours; conditions: phase I study; cited from earlier work
smiles,measurement,setting,value
O=c1ccc2ccccc2o1 [Coumarin],"toxicity (liver, kidney) / general safety",[1],can cause liver and kidney damage
"OO [H2O2, hydrogen peroxide]",oxidative stress (intracellular ROS) in M14 cells compared with PBMCs,[2],greater oxidative stress
C=CCc1ccc2c(c1)OCO2 [Safrole],carcinogenicity,[3],weak carcinogenicity
"CC/C(=C(\c1ccccc1)c1ccc(OCCN(C)C)cc1)c1ccccc1 [TAM, Tamoxifen]",survival of M14 cells compared to control,"[4]; EO 10 μg/ml, TAM 0, 1 μM, 24 hours",no significant differences in survival compared to control
"CC(=O)O[C@H]1C(=O)[C@@]2(C)[C@H]([C@H](OC(=O)c3ccccc3)[C@]3(O)C[C@H](OC(=O)[C@H](O)[C@@H](NC(=O)c4ccccc4)c4ccccc4)C(C)=C1C3(C)C)[C@]1(OC(C)=O)CO[C@@H]1C[C@@H]2O [Taxol, Paclitaxel]",induction of cell death in M14 cells,"[4]; 24 hours treatment, EO 10 μg/ml",less than 10%
O=CC=Cc1ccccc1 [cinnamaldehyde],cell survival (colonies vs untreated control),"[4]; M14 cells, 24 hours treatment",64.3%
CC(C)(C)c1nc(-c2cccc(NS(=O)(=O)c3c(F)cccc3F)c2F)c(-c2ccnc(N)n2)s1 [dabrafenib],ORR (objective response rate),[5],53%
same,median PFS (progression free survival),[5],5.1 months
same,ORR,[6],47%
